Tests used:
[1] = test system: c-Abl kinase (K562 cells); assay: In-vitro cell proliferation assay (MTT), K562 cells; assay type: cell-based; details: for inhibition at 0.001 µM / inhibition at 0.01 µM / inhibition at 0.1 µM: Homo sapiens
Description: In-vitro Cell Proliferation Assay
K562/U937 cells (2×10^4 per well) were incubated with the test compounds/vehicle in a total volume of 200 μL of media at 37° C. with 5% CO2. On day 4, 20 μL MTT 5 mg/ml was added and the cells were incubated for 4-5 hours followed by addition of 100 μL of 10% SDS prepared in 0.06N HCl. The cells were incubated overnight at 37° C. with 5% CO2. On Day 5 the optical density was measured at 570 nm with 630 nm as reference wavelength. The optical density in the vehicle treated wells was compared with that of the test compound treated wells.

[2] = biological target: mutated Abl (T315I) (human) (Homo sapiens, UniProt P00519, T315I); assay: Mutated Abl (T315I) (human) kinase assay, 33P-ATP filter binding; assay type: biochemical; details: for inhibition at 0.003 µM: 3 nM; for inhibition at 0.03 µM: 30 nM
Description: Mutated Abl (T315I) (Human)Kinase
In a final reaction volume of 25 μL, mutated Abl (T315I) (human) (5-10 mU) is incubated with 8 mM MOPS pH7.0, 0.2 mM EDTA, […] EAIYAAPFAKKK, 10 mM Mg(OAc)2 and [γ-33P-ATP] [specific activity approx. 500 cpm/pmol, concentration as required]. The reaction is initiated by the addition of the MgATP mix. After incubation for 40 minutes at room temperature, the reaction is stopped by the addition of 5 μL of a 3% phosphoric acid solution. 10 μL of the reaction is then spotted onto a P30 filtermat and washed three times for 5 minutes in 75 mM phosphoric acid and once in methanol prior to drying and scintillation counting.

Row | Structure (SMILES) | inhibition at 0.003 µM [2] | inhibition at 0.03 µM [2] | inhibition at 0.001 µM ([1]; 1 nM) | inhibition at 0.01 µM ([1]; 10 nM) | inhibition at 0.1 µM ([1]; 100 nM) | c-Abl kinase (K562 cells); % Inhibition ([1]; 1 nM) | c-Abl kinase (K562 cells); % Inhibition ([1]; 10 nM) | c-Abl kinase (K562 cells); % Inhibition ([1]; 100 nM)
1 | Cc1ccc(C(=O)NNC(=O)c2ccc(CN3CCN(C)CC3)c(C(F)(F)F)c2)cc1C#Cc1ccc(NC(=O)C2CC2)nc1 [I.11, Cyclopropanecarboxylic acid [5-(2-methyl-5-{N′-[4-(4-methylpiperazin-1-yl-methyl)-3-trifluoromethylbenzoyl]-hydrazinocarbonyl}phenylethynyl)pyridin-2-yl]amide] |  |  | 54% | 58.3% | 57.2% |  |  | 
2 | Cc1ccc(C(=O)NNC(=O)c2c(C)cccc2Cl)cc1C#Cc1ccc(NC(=O)CCN2CCN(C)CC2)nc1 [I.3, N-(5-{5-[N′-(2-Chloro-6-methylbenzoyl)hydrazinocarbonyl]-2-methyl-phenylethynyl}-pyridin-2-yl)-3-(4-methyl-piperazin-1-yl)propionamide] | 59% | 94% | 75% | 85.5% | 87.9% |  |  | 
3 | Cc1ccc(C(=O)NNC(=O)c2c(C)cccc2Cl)cc1C#Cc1ccc(NC(=O)CN2CCC(N(C)C)CC2)nc1 [I.4, N-(5-{5-[N′-(2-Chloro-6-methyl-benzoyl)hydrazinocarbonyl]-2-methyl-phenylethynyl}-pyridin-2-yl)-2-(4-dimethylaminopiperidin-1-yl)acetamide] | 70% | 95% | 76.5% | 81.4% | 86.9% |  |  | 
4 | Cc1cn(-c2cc(C(=O)NNC(=O)c3ccc(C)c(C#Cc4ccc(NC(=O)C5CC5)nc4)c3)cc(C(F)(F)F)c2)cn1 [I.8, Cyclopropanecarboxylic acid [5-(2-methyl-5-{N′-[3-(4-methylimidazol-1-yl)-5-trifluoromethylbenzoyl]-hydrazinocarbonyl}phenylethynyl)pyridin-2-yl]amide] |  |  | 68.9% | 84% | 86.1% |  |  | 
5 | Cc1ccc(C(=O)NNC(=O)c2c(C)cccc2Cl)cc1C#Cc1ccc(NC(=O)C(F)(F)F)nc1 [I.10] |  |  |  |  |  | 39.8% | 78.5% | 73.3%
6 | Cc1ccc(C(=O)NNC(=O)c2ccc(CN3CCN(C)CC3)cc2)cc1C#Cc1ccc(NC(=O)C2CC2)nc1 [I.7, Cyclopropanecarboxylic acid [5-(2-methyl-5-{N′-[4-(4-methylpiperazin-1-ylmethyl)benzoyl]-hydrazinocarbonyl}phenylethynyl)pyridin-2-yl]amide] |  |  | 24.6% | 78.6% | 85.9% |  |  | 
7 | CCCC(=O)Nc1ccc(C#Cc2cc(C(=O)NNC(=O)c3c(C)cccc3Cl)ccc2C)cn1 [I.12] |  |  |  |  |  | 33.6% | 80.6% | 
8 | Cc1ccc(C(=O)NNC(=O)c2c(C)cccc2Cl)cc1C#Cc1ccc(NC(=O)NC2CC2)nc1 [I.9, 1-(5-{5-[N′-(2-Chloro-6-methyl-benzoyl)-hydrazinocarbonyl]-2-methyl-phenylethynyl}-pyridin-2-yl)-3-cyclopropylurea] |  |  | 61% | 83.6% | 87.8% |  |  | 

More lines, main results first:

Row | inhibition at 0.003 µM [2] | inhibition at 0.03 µM [2] | Structure (SMILES) | inhibition at 0.001 µM ([1]; 1 nM) | inhibition at 0.01 µM ([1]; 10 nM) | inhibition at 0.1 µM ([1]; 100 nM) | c-Abl kinase (K562 cells); % Inhibition ([1]; 1 nM) | c-Abl kinase (K562 cells); % Inhibition ([1]; 10 nM) | c-Abl kinase (K562 cells); % Inhibition ([1]; 100 nM)
9 | 87% | 98% | Cc1ccc(C(=O)NNC(=O)c2c(C)cccc2Cl)cc1C#Cc1ccc(NC(=O)C2CC2)nc1 [I.1, cyclopropanecarboxylic acid (5-{5-[N′-(2-chloro-6-methylbenzoyl)hydrazinocarbonyl]-2-methyl-phenylethynyl}-pyridin-2-yl)amide] | 84.7% | 91.1% | 87% |  |  | 
10 | 50% | 87% | Cc1ccc(C(=O)NNC(=O)c2c(C)cccc2Cl)cc1C#Cc1ccc(NC(=O)CN(C)C)nc1 [I.2, N-(5-{5-[N′-(2-chloro-6-methylbenzoyl)hydrazinocarbonyl]-2-methyl-phenylethynyl}-pyridin-2-yl)-2-dimethylaminoacetamide] | 71.6% | 82.5% | 82.9% |  |  | 
11 | 66% | 96% | Cc1ccc(C(=O)NNC(=O)c2c(C)cccc2Cl)cc1C#Cc1ccc(NC(=O)CN2CCC(N(C)C)C2)nc1 (centres unmarked) [I.5, N-(5-{5-[N′-(2-Chloro-6-methyl-benzoyl)hydrazinocarbonyl]-2-methyl-phenylethynyl}-pyridin-2-yl)-2-(3-dimethylaminopyrrolidin-1-yl)acetamide] | 71.4% | 81.7% | 82.1% |  |  | 
12 | 68% | 89% | CC(=O)Nc1ccc(C#Cc2cc(C(=O)NNC(=O)c3c(C)cccc3Cl)ccc2C)cn1 [I.6, N-(5-{5-[N′-(2-Chloro-6-methyl-benzoyl)hydrazinocarbonyl]-2-methyl-phenylethynyl}-pyridin-2-yl)acetamide] | 88.4% | 91.6% | 91% |  |  | 
